Reference: ChEMBL document CHEMBL6087461, “Cell-Permeable Peptide Inhibitors of the p53-hDM2 Interaction via Foldamer Helix Mimicry and Bis-Thioether Stapling” (J Med Chem, 2025)
Starred links: 1 amine or outer side, 2 acyl side, 3 side chain; linkers in the order of their positions; H or OH if unused. Positions of bridges follow the written chain, without caps; N, C: chain ends. Residues, ends and D or L forms follow the SMILES beside them. *: point of attachment. X12 = CC(C)[C@@H](CNC(N)=O)NC(=O)NC[C@H](C)NC(=O)NC[C@H](CSCc1ccc(C[*:1])cc1)N[*:2]; X1 = CC(C)[C@@H](CNC(N)=O)NC(=O)NC[C@H](C)NC(=O)NC[C@H](CSCCCCCC[*:1])N[*:2]; X10 = CC(C)[C@@H](CNC(N)=O)NC(=O)NC[C@H](CSCCC[*:1])NC(=O)NC[C@H](C)N[*:2]; X3 = CC(C)[C@@H](CNC(N)=O)NC(=O)NC[C@H](C)NC(=O)NC[C@H](C)N*; CH2CONHCH2CH2NHCOCH2 = O=C(C[*:1])NCCNC(=O)C[*:2]; pXylylene = c1cc(C[*:2])ccc1C[*:1]; X7 = C(CC[*:1])CC[*:2]

Assays:
[1] = molecular target: Tumour suppressor p53/oncoprotein Mdm2 (Homo sapiens) (UniProt P04637+Q00987); test: PROTAC activity at human MDM2/p53 extracted from Escherichia coli interaction by measuring inhibition of interaction at 100 nM by time-resolved fluorescence energy transfer (TRFRET) detection method relative to control; type: protein assay
Tumour suppressor p53/oncoprotein Mdm2 (Homo sapiens), sequence (P04637 whole entry, looked up): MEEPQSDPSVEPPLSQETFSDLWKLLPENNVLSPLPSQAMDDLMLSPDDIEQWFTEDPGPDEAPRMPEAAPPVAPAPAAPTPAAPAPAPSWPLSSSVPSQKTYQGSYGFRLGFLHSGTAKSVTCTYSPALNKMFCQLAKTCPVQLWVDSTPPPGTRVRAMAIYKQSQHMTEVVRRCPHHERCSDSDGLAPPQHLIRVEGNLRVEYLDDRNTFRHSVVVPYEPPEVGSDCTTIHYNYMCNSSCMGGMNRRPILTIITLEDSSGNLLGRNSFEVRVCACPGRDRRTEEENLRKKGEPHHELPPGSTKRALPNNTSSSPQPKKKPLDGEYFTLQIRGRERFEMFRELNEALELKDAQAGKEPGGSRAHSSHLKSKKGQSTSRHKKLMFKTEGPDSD
Tumour suppressor p53/oncoprotein Mdm2 (Homo sapiens), sequence (Q00987 whole entry, looked up): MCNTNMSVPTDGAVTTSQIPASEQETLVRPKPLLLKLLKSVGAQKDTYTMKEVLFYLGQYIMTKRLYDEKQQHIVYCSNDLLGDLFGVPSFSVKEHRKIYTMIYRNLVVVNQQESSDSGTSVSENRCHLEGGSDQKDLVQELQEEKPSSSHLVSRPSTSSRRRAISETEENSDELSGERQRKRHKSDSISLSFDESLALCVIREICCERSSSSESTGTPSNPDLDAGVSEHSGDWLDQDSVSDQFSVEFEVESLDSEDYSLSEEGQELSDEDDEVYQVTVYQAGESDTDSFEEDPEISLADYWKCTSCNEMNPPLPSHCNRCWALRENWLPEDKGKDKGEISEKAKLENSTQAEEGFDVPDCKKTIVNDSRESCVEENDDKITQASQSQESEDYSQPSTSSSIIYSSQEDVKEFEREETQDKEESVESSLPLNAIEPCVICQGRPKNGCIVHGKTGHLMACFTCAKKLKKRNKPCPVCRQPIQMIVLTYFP

[2] = molecular target: Tumour suppressor protein p53/Mdm4 (Homo sapiens) (UniProt P04637+O15151); test: PROTAC activity at human DMX/p53 extracted from Escherichia coli interaction at 100 nM by measuring inhibition of interaction by time-resolved fluorescence energy transfer (TRFRET) detection method relative to control; type: protein assay
Tumour suppressor protein p53/Mdm4 (Homo sapiens), sequence (O15151 whole entry, looked up): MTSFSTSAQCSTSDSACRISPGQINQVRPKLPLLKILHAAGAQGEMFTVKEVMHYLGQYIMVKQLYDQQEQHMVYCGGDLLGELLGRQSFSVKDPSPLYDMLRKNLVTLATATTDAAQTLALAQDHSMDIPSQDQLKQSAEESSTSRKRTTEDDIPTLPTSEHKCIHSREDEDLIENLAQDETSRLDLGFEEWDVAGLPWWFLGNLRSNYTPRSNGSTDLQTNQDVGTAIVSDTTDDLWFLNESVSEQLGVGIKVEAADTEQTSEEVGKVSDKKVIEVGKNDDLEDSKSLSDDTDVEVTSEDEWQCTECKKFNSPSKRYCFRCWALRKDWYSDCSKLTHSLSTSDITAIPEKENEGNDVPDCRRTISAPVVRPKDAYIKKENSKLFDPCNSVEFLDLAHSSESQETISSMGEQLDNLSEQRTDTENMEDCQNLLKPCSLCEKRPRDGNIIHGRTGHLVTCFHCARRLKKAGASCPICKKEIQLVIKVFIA
Tumour suppressor protein p53/Mdm4 (Homo sapiens), sequence (P04637 whole entry, looked up): as the sequence (P04637 whole entry, looked up) above

Structure (SMILES)	inhibition [1]	inhibition [2]
CC(C)[C@@H](CNC(N)=O)NC(=O)NC[C@H](C)NC(=O)NC[C@H](C)NC(=O)[C@H](Cc1c[nH]c2ccccc12)NC(=O)[C@H](Cc1ccc(O)cc1)NC(=O)[C@@H]1CSCC(=O)NCCNC(=O)CSC[C@H](N)C(=O)N[C@@H](CO)C(=O)N[C@@H](Cc2ccccc2)C(=O)N[C@@H](C)C(=O)N1 (H-CSFACYW-X3; linker 1-5 via CH2CONHCH2CH2NHCOCH2)	83%	47%
CC(C)[C@@H](CNC(N)=O)NC(=O)NC[C@H](C)NC(=O)NC[C@H](C)NC(=O)[C@H](Cc1c[nH]c2ccccc12)NC(=O)[C@H](Cc1ccc(O)cc1)NC(=O)[C@H](CCC(=O)O)NC(=O)[C@H](C)NC(=O)[C@H](Cc1ccccc1)NC(=O)[C@H](CO)NC(=O)[C@@H](NC(=O)[C@H](CCCNC(=N)N)NC(=O)[C@H](CCCNC(=N)N)NC(=O)[C@@H](N)CCCNC(=N)N)[C@@H](C)O (H-RRRTSFAEYW-X3)	95%	81%
CC(C)[C@@H](CNC(N)=O)NC(=O)NC[C@H](C)NC(=O)NC[C@@H]1CSCCCCCCSC[C@H](NC(=O)[C@H](Cc2ccccc2)NC(=O)[C@H](CO)NC(=O)[C@@H](N)[C@@H](C)O)C(=O)N[C@@H](CCC(N)=O)C(=O)N[C@@H](Cc2ccc(O)cc2)C(=O)N[C@@H](Cc2c[nH]c3ccccc23)C(=O)N1 (H-TSFCQYW; linker 4-C via X1)	85%	36%
CC(C)[C@@H](CNC(N)=O)NC(=O)NC[C@H](C)NC(=O)NC[C@H](C)NC(=O)[C@H](Cc1c[nH]c2ccccc12)NC(=O)[C@H](Cc1ccc(O)cc1)NC(=O)[C@@H]1CSSC[C@H](NC(=O)[C@@H](N)[C@@H](C)O)C(=O)N[C@@H](Cc2ccccc2)C(=O)N[C@@H](C)C(=O)N1 (H-TCFACYW-X3; disulfide 2-5)	50%	23%

Next, values leading:

inhibition [1]	inhibition [2]	Structure (SMILES)
15%	4%	CC(C)[C@@H](CNC(N)=O)NC(=O)NC[C@@H]1CSCCCSC[C@H](NC(=O)[C@H](C)NC(=O)[C@H](Cc2ccccc2)NC(=O)[C@H](CO)NC(=O)[C@@H](N)[C@@H](C)O)C(=O)N[C@@H](Cc2ccc(O)cc2)C(=O)N[C@@H](Cc2c[nH]c3ccccc23)C(=O)N[C@@H](C)CNC(=O)N1 (H-TSFACYW; linker 5-C via X10)
21%	-4%	CC(C)[C@@H](CNC(N)=O)NC(=O)NC[C@H](C)NC(=O)NC[C@@H]1CSCc2ccc(cc2)CSC[C@H](NC(=O)[C@H](Cc2ccccc2)NC(=O)[C@H](CO)NC(=O)[C@@H](N)[C@@H](C)O)C(=O)N[C@@H](CCC(=O)O)C(=O)N[C@@H](Cc2ccc(O)cc2)C(=O)N[C@@H](Cc2c[nH]c3ccccc23)C(=O)N1 (H-TSFCEYW; linker 4-C via X12)
42%	-3%	CC(C)[C@@H](CNC(N)=O)NC(=O)NC[C@H](C)NC(=O)NC[C@@H]1CSCCCCCCSC[C@H](NC(=O)[C@H](Cc2ccccc2)NC(=O)[C@H](CO)NC(=O)[C@@H](N)[C@@H](C)O)C(=O)N[C@@H](C)C(=O)N[C@@H](Cc2ccc(O)cc2)C(=O)N[C@@H](Cc2c[nH]c3ccccc23)C(=O)N1 (H-TSFCAYW; linker 4-C via X1)
58%	16%	CC(C)[C@@H](CNC(N)=O)NC(=O)NC[C@H](C)NC(=O)NC[C@H](C)NC(=O)[C@H](Cc1c[nH]c2ccccc12)NC(=O)[C@H](Cc1ccc(O)cc1)NC(=O)[C@@H]1CSCCCCCSC[C@H](N)C(=O)N[C@@H](CO)C(=O)N[C@@H](Cc2ccccc2)C(=O)N[C@@H](C)C(=O)N1 (H-CSFACYW-X3; linker 1-5 via X7)
37%	14%	CC(C)[C@@H](CNC(N)=O)NC(=O)NC[C@H](C)NC(=O)NC[C@H](C)NC(=O)[C@H](Cc1c[nH]c2ccccc12)NC(=O)[C@H](Cc1ccc(O)cc1)NC(=O)[C@@H]1CSCc2ccc(cc2)CSC[C@H](N)C(=O)N[C@@H](CO)C(=O)N[C@@H](Cc2ccccc2)C(=O)N[C@@H](C)C(=O)N1 (H-CSFACYW-X3; linker 1-5 via pXylylene)
